Data set [1] can be described thus: Stability test -2: residual rate in cream of pH 7 or 9 stored at 50°C. The format is physicochemical. To be noted: cream with 4.0 W/W% derivative. As for the experimental part:
(§1) For each of the samples of Synthesis Examples 9 to 32, (a) and (b) shown in Table 12 were each heated and mixed. After cooling, (c) shown in Table 12 was added to prepare a cream with a pH of 7 or 9. The sample was stored at 50°C for 4 weeks, and the residual rate was determined in the same manner as in Test Example 1 and evaluated according to the criteria described below. The odor and coloration were also evaluated according to the same method and criteria as in Test Example 1. The results regarding the residual rate are shown in Tables 13 and 14, and the results regarding the odor and coloration are shown in Tables 15 and 16.
• ⊚: 95% or more • ○: 85% or more, less than 95% • ×: Less than 85% [Table 12]

Data set [2] in a line: Stability test -2: odor and coloration of cream stored at 50°C. The format is physicochemical. The note with it: Test Example 2, cream stored at 50°C, total score of 10 panelists. As for the experimental part: (§2) For each of the samples of Synthesis Examples 1 to 6, 1% aqueous solutions were adjusted to pH 3, 5, 7, 8, and 9 with a dilute potassium hydroxide aqueous solution, and then placed in 50 mL screw tubes and • 2: Color changes compared to immediately after preparation. • 1: Strongly colored compared to immediately after preparation. Based on the results of the above evaluation, the following classification was made: • ○: Total score of 10 panelists is 25 or more • △: Total score of 10 panelists is 16-24 • ×: The total score of 10 panelists is 15 or less [Table 10]
as §1

Data set [3] relates to Normal human dermal fibroblasts. The data set is described as follows: Collagen production promoting effect (ELISA of free collagen in supernatant). The format is cell-based. To be noted: sample at 10 mM or less, cultured 48 hours, % of control group (100%), N=3. As for the experimental part: Normal human dermal fibroblasts were prepared in D-MEM containing 5% (v/v) fetal bovine serum to a cell density of 2.5 × 10^4 cell s /well, and then pre-incubated for 24 hours on a 96-well plate. After removing the medium, samples prepared to a predetermined concentration in D-MEM containing 5% (v/v) fetal bovine serum were added to each well and cultured for 48 hours. After the culture was completed, the amount of free collagen in the supernatant was quantified by ELISA. Measurements were performed in triplicate (N=3).
The amount of collagen produced when the sample was measured at a concentration of 10 mM or less was compared with that of the control group, and the results (% values when the control group was set to 100%) are shown in Table 17 based on the following criteria. • <100%: ± • 100-140%: + • 140%<: ++ [Table 17]
For orientation: In an ELISA, binding on a coated surface is turned into a signal by an enzyme label.

In data set [4] the test system is Normal human dermal fibroblasts (NHDF). The experiment in a line: Hyaluronic acid production promoting effect (ELISA of supernatant). The format is cell-based. The note with it: sample at 10 mM or less in serum-free D-MEM, cultured 48 hours, % of control group (100%), N=3. As for the experimental part:
Normal human dermal fibroblasts (NHDF) were prepared in D-MEM containing 5% (v/v) fetal bovine serum to a cell density of 2.5 × 10^4 cells/well, and then pre-incubated on a 96-well plate for 24 hours. After removing the medium, samples prepared in serum-free D-MEM were added to each well and cultured for 48 hours. After the culture was completed, the amount of hyaluronic acid in the supernatant was quantified by ELISA. Measurements were performed in triplicate (N=3).
The amount of hyaluronic acid produced when the sample was measured at a concentration of 10 mM or less was compared with that of the control group, and the results (% values when the control group is set to 100%) are shown in Tables 18 to 20 based on the following criteria. • <100%: ± • 100-120%: + • 120%<: ++ [Table 18]

The nature of data set [5]: Stability test -1: residual rate of 1% aqueous solutions at pH 3 to 9 on storage. The format is physicochemical. The note with it: 1% aqueous solution.
Data set [6] can be described thus: Stability test -1: odor and coloration scored by 10 panelists. The format is physicochemical. The note with it: Test Example 1, aqueous solution, total score of 10 panelists. As for the experimental part: as §2

With `CCCCCCCCCCCCCCCC(=O)OCC(OC(=O)CCCCCCCCCCCCCCC)C1OC(=O)C2=C1OCCCO2` (stereo not shown) [Synthesis Example 27, 5,6-O-dipalmitoyl-2,3-O-(1,3-propanediyl) ascorbic acid], in data set [1] (pH7, stored at 50°C), the “Residual Rate After 2 weeks” value was “⊚ (95% or more)” and the “Residual Rate After 4 weeks” value is “⊚ (95% or more)”. Besides, in data set [1] (pH9, stored at 50°C), the “Residual Rate After 2 weeks” value is recorded as “⊚ (95% or more)” and the “Residual Rate After 4 weeks” value is on record as “⊚ (95% or more)”. Besides, in data set [2], the “Coloration After 2 weeks” value is recorded as “○ (Total score of 10 panelists is 25 or more)”, the “Odor After 2 weeks” value is listed as “○ (Total score of 10 panelists is 25 or more)”, the “Coloration After 4 weeks” value is listed as “Δ” and the “Odor After 4 weeks” value was “Δ”. Besides, in data set [3], the Collagen production-promoting effect result was “++ (140%<)”. In data set [4], the “Hyaluronic acid production-promoting effect” value was “++ (120%<)”.
`O=C1OC(C(O)CO)C2=C1OCCO2` (stereo not shown) [synthesis example 1, 2,3-O-(1,2-ethanediyl) ascorbic acid]: the “Residual Rate After 2 weeks” value in data set [5] (pH3, stored at 50°C) was “⊚”; in data set [5] (pH5, stored at 50°C), “⊚”; in data set [5] (pH7, stored at 50°C) it was “○”; in data set [5] (pH8, stored at 50°C) it was “Δ”; in data set [5] (pH9, stored at 50°C), “×”. Also, the “Residual Rate After 4 weeks” value in data set [5] (pH3, stored at 50°C) is “⊚”; in data set [5] (pH5, stored at 50°C) it was “⊚”; in data set [5] (pH7, stored at 50°C) it was “Δ”; in data set [5] (pH8, stored at 50°C), “×”; in data set [5] (pH9, stored at 50°C), “×”. The “Coloration After 2 weeks” value in data set [6] is “○ (Total score of 10 panelists is 25 or more)”. In addition, the “Odor After 2 weeks” value in data set [6] was “○ (Total score of 10 panelists is 25 or more)”. Besides, in data set [6], the “Coloration After 4 weeks” value is listed as “Δ”. Besides, the “Odor After 4 weeks” value in data set [6] is listed as “○ (Total score of 10 panelists is 25 or more)”. The Collagen production-promoting effect entry in data set [3] is reported as “+ (100-140%)”. For the same molecule, the “Hyaluronic acid production-promoting effect” value in data set [4] is “+ (100-120%)”.
For the molecule `O=C1OC(C(O)CO)C2=C1OCCCO2` (stereo not shown) [synthesis example 2, 2,3-O-(1,3-propanediyl) ascorbic acid], in data set [5] (pH3, stored at 50°C), the “Residual Rate After 2 weeks” value is recorded as “⊚” and the “Residual Rate After 4 weeks” value was “⊚”. In data set [5] (pH5, stored at 50°C), the “Residual Rate After 2 weeks” value is given as “⊚” and the “Residual Rate After 4 weeks” value is given as “⊚”. Also, in data set [5] (pH7, stored at 50°C), the “Residual Rate After 2 weeks” value was “⊚” and the “Residual Rate After 4 weeks” value is given as “⊚”. In addition, in data set [5] (pH8, stored at 50°C), the “Residual Rate After 2 weeks” value is listed as “⊚” and the “Residual Rate After 4 weeks” value is recorded as “○”. Further, in data set [5] (pH9, stored at 50°C), the “Residual Rate After 2 weeks” value is on record as “○” and the “Residual Rate After 4 weeks” value is listed as “Δ”. For the same molecule, in data set [6], the “Coloration After 2 weeks” value is “○ (Total score of 10 panelists is 25 or more)”, the “Odor After 2 weeks” value is “○ (Total score of 10 panelists is 25 or more)”, the “Coloration After 4 weeks” value was “○ (Total score of 10 panelists is 25 or more)” and the “Odor After 4 weeks” value was “Δ”. For the same molecule, in data set [3], the Collagen production-promoting effect result is recorded as “++ (140%<)”. For the same molecule, the “Hyaluronic acid production-promoting effect” value in data set [4] is “++ (120%<)”.
`O=C1OC(C(O)CO)C2=C1OCCCCO2` (stereo not shown) [synthesis example 3, 2,3-O-(1,4-butanediyl) ascorbic acid]: in data set [5] (pH3, stored at 50°C), the “Residual Rate After 2 weeks” value is “⊚” and the “Residual Rate After 4 weeks” value is on record as “⊚”. Besides, in data set [5] (pH5, stored at 50°C), the “Residual Rate After 2 weeks” value is listed as “⊚” and the “Residual Rate After 4 weeks” value is reported as “⊚”. In data set [5] (pH7, stored at 50°C), the “Residual Rate After 2 weeks” value is listed as “⊚” and the “Residual Rate After 4 weeks” value is listed as “⊚”. For the same molecule, in data set [5] (pH8, stored at 50°C), the “Residual Rate After 2 weeks” value is on record as “⊚” and the “Residual Rate After 4 weeks” value is given as “○”. Further, in data set [5] (pH9, stored at 50°C), the “Residual Rate After 2 weeks” value was “○” and the “Residual Rate After 4 weeks” value is “Δ”. In addition, in data set [6], the “Coloration After 2 weeks” value is reported as “○ (Total score of 10 panelists is 25 or more)”, the “Odor After 2 weeks” value is given as “○ (Total score of 10 panelists is 25 or more)”, the “Coloration After 4 weeks” value was “○ (Total score of 10 panelists is 25 or more)” and the “Odor After 4 weeks” value is recorded as “○ (Total score of 10 panelists is 25 or more)”. Besides, in data set [3], the Collagen production-promoting effect entry was “+ (100-140%)”. For the same molecule, the “Hyaluronic acid production-promoting effect” value in data set [4] is on record as “+ (100-120%)”.
Regarding `CCCC(=O)OCC(OC(=O)CCC)C1OC(=O)C2=C1OCCCO2` (stereo not shown) [synthesis example 21, 5,6-O-dibutanoyl-2,3-O-(1,3-propanediyl) ascorbic acid], in data set [1] (pH7, stored at 50°C), the “Residual Rate After 2 weeks” value was “⊚ (95% or more)” and the “Residual Rate After 4 weeks” value was “⊚ (95% or more)”. In data set [1] (pH9, stored at 50°C), the “Residual Rate After 2 weeks” value is “⊚ (95% or more)” and the “Residual Rate After 4 weeks” value is reported as “⊚ (95% or more)”. Besides, in data set [2], the “Coloration After 2 weeks” value was “○ (Total score of 10 panelists is 25 or more)”, the “Odor After 2 weeks” value is “○ (Total score of 10 panelists is 25 or more)”, the “Coloration After 4 weeks” value is “○ (Total score of 10 panelists is 25 or more)” and the “Odor After 4 weeks” value was “Δ”. In data set [3], the Collagen production-promoting effect entry is on record as “++ (140%<)”. The “Hyaluronic acid production-promoting effect” value in data set [4] is listed as “++ (120%<)”.
On to `CC(C)CCCCCCCCCCCCCCC(=O)OCC(OC(=O)CCCCCCCCCCCCCCC(C)C)C1OC(=O)C2=C1OCCCO2` (stereo not shown) [synthesis example 29, 5,6-O-diisostearoyl-2,3-O-(1,3-propanediyl) ascorbic acid], for which, in data set [1] (pH7, stored at 50°C), the “Residual Rate After 2 weeks” value was “⊚ (95% or more)” and the “Residual Rate After 4 weeks” value is recorded as “⊚ (95% or more)”. Besides, in data set [1] (pH9, stored at 50°C), the “Residual Rate After 2 weeks” value is listed as “⊚ (95% or more)” and the “Residual Rate After 4 weeks” value was “⊚ (95% or more)”. Besides, in data set [2], the “Coloration After 2 weeks” value is recorded as “○ (Total score of 10 panelists is 25 or more)”, the “Odor After 2 weeks” value was “○ (Total score of 10 panelists is 25 or more)”, the “Coloration After 4 weeks” value is “○ (Total score of 10 panelists is 25 or more)” and the “Odor After 4 weeks” value was “Δ”. The Collagen production-promoting effect result in data set [3] is recorded as “++ (140%<)”. The “Hyaluronic acid production-promoting effect” value in data set [4] is recorded as “+ (100-120%)”.
Consider `CCCCCCCC(=O)OCC(OC(=O)CCCCCCC)C1OC(=O)C2=C1OCCCCO2` (stereo not shown) [synthetic example 12, 5,6-O-dioctanoyl-2,3-O-(1,4-butanediyl) ascorbic acid], for which, in data set [1] (pH7, stored at 50°C), the “Residual Rate After 2 weeks” value is listed as “⊚ (95% or more)” and the “Residual Rate After 4 weeks” value was “⊚ (95% or more)”. In data set [1] (pH9, stored at 50°C), the “Residual Rate After 2 weeks” value is “⊚ (95% or more)” and the “Residual Rate After 4 weeks” value was “⊚ (95% or more)”. For the same molecule, in data set [2], the “Coloration After 2 weeks” value is “○ (Total score of 10 panelists is 25 or more)”, the “Odor After 2 weeks” value was “○ (Total score of 10 panelists is 25 or more)”, the “Coloration After 4 weeks” value is listed as “○ (Total score of 10 panelists is 25 or more)” and the “Odor After 4 weeks” value is “Δ”. In addition, the Collagen production-promoting effect result in data set [3] is given as “++ (140%<)”. Besides, in data set [4], the “Hyaluronic acid production-promoting effect” value is “++ (120%<)”.
